Measured values from patent publication US20080187492A1, “Drosophila Models For Diseases Affecting Learning and Memory” (priority 2004, published 2008).

Tests used:
[1] = test system: FS flies lacking dfmr1 activity; assay: Short-term memory (60 mins) with mated female targets, FS flies; assay type: in vivo, Drosophila melanogaster; settings: for short-term memory, mated female target: 86 μM MPEP, 400 nM LY341495, 573 μM MPPG, 348 μM MTPG; for memory at 60 minutes post training, mated female target: 5 day old, 8.6 mM MPEP, 400 nM LY341495
Procedure: Effects of drug treatment on short-term memory (60 mins) in flies lacking dfmr1 activity with mated female targets. Short-term (60 min.) memory was measured in Rescue and FS flies that were either fed control food or underwent various drug treatments as described below. Short-term memory was measured by placing a trained male in a holding chamber for 60 minutes (after being trained for one hour with a previously mated female), then subsequently placing him in a testing chamber with a mated female target for a ten-minute courtship interval (C.I.). This C.I. was compared to the C.I. obtained for naïve courtship of a previously mated female, i.e., C.I. during the first 10 minutes of the training session with a previously mated female. Additionally, for reference the C.I. during the last 10 minutes of the training period was also determined. Numbers of flies are indicated above each bar for all groups. The levels of significance are indicated as follows; *=p<0.05; **=p<0.005; ***=p<0.0001.
Restoration of short-term memory with mGluR antagonists. To establish that the failure to observe memory was not due to a problem with recognizing or processing the appropriate cues from the virgin female target, we used a modified version of the conditioned courtship paradigm where the male is paired with a mated female target subsequent to training (Kane et al., 1997; Joiner and Griffith, 1997; Joiner and Griffith, 1999; Kamashev et al., 1999). Again, with pharmacologic treatment it is necessary to utilize more then one compound to confirm the specificity of the target, so in this case we used four mGluR antagonists. […] It is also important to note that the robust deficit in synaptic plasticity in FS flies, with regard to memory, is a critical extension of the previous models of Fragile X syndrome in model organisms, since this is one of the most prominent aspects of the human disorder. Furthermore, we have shown that antagonism of the mGluRs can restore synaptic plasticity in the Drosophila model of Fragile X syndrome.

[2] = test system: Rescue (dFMR1-3+wild type rescue fragment) flies; assay: Conditioned courtship: short-term memory at 60 minutes, virgin female target, Rescue flies; assay type: in vivo, Drosophila melanogaster; settings: for short term memory: MPEP (20 μg/ml), NaCl (5 and 50 mM), LY341495 (400 nM); for short-term memory at 60 minutes after training: adulthood or both
Procedure: Short-term memory. The model was further extended to encompass short-term memory at 60 minutes after training. After the one hour training session with a previously mated female, the female is removed and the male is placed in a holding chamber for 60 minutes, then subsequently placed in a testing chamber with a virgin female target to assess short-term memory (FIG. 4C). […] CT-CT FS flies court just as vigorously at 60 minutes after training as naive CT-CT FS flies. […] The FS groups that were treated with MPEP in development alone, adulthood alone or in both development and adulthood display experience dependent reduction of courtship activity at 60 minutes after training when compared to group matched naives M-M FS, p<0.0001, CT-M FS, p<0.0001 and M-CT FS, p<0.0001. […] Additionally, flies were tested for ability to discriminate between virgin and previously mated females (FIG. 4D).
In order to examine short-term memory at 60 minutes after training, after the one hour training session with a previously mated female, the female is removed and the male is placed in a holding chamber for 60 minutes, then subsequently placed in a testing chamber with a virgin female (FIG. 9B). […] CT-CT FS flies court just as vigorously at 60 minutes after training as naive CT-CT FS flies. […] The FS groups that were treated with MPEP in development alone, adulthood alone or in both development and adulthood display experience dependent reduction of courtship activity at 60 minutes after training when compared to group matched naives M-M FS.

[3] = test system: wild type human and Drosophila tau expressing flies; assay: Short term memory in tau over expressing Drosophila Alzheimer's model; assay type: in vivo; settings: for age dependent short term memory deficit: at 30 and 40 days
Text: Two Drosophila Alzheimer's models are particularly useful. One uses over expression of tau (either human wild type or Drosophila wild type with a myc tag) driven in the mushroom bodies. Flies overexpressing tau have normal memory at 5 days of age (young adults) but an age dependent impairment of short-term and long term memory by 26 days of age.

[4] = test system: Drosophila expressing mutant huntington protein in the MBs; assay: Naive courtship and short-term memory in Drosophila expressing mutant huntington in the MBs; assay type: in vivo; settings: 5 day old flies; p<0.05
Text: Both HDAC inhibition and CBP overexpression should in theory promote an increase CREB mediated gene transcription. […] Since we knew that we could use a PDE-4 inhibitor or mGluR antagonists or lithium to increase cAMP levels thereby promoting CREB mediated transcription, we decided to see if these compounds could restore the memory deficit in Drosophila expressing mutant huntington in the MBs.

[5] = test system: Rescue (dFMR1-3+wild type rescue fragment) flies; assay: Conditioned courtship: immediate recall (0 minute memory), Rescue flies; assay type: in vivo, Drosophila melanogaster
Procedure: To assess immediate recall (0 minute memory), after the one hour training session with a previously mated female, the male was placed with a virgin target female for a ten-minute interval. This CI was then compared to the courtship level of naive males that had been placed in the training chamber for one hour with no female, before introducing them to a virgin target female for a ten-minute interval. In FIG. 1B the w1118 and Rescue lines show depression of courtship activity after training compared to naive trained males (p<0.005). However, dFMR1-3 and FS mutant lines court just as vigorously after training with a previously mated female as naive trained males, therefore these flies display no experience dependent behavioral plasticity at the time point of immediate recall. This is in spite of the fact that they court to similar levels as w1118 and Rescue lines during the training period. This implicates a deficit in synaptic plasticity for the two mutant lines at immediate recall (0 minute memory). This robust deficit in behavioral plasticity is a critical extension of the previous models of Fragile X syndrome in model organisms, since this has been completely missing in Drosophila models and is subtle in murine models, and particularly since this may be one of the most devastating aspects of the human disease.
Immediate recall. […]

Row | Compound | short-term memory, mated female target [1] | memory at 60 minutes post training, mated female target [1] | short term memory ([2]; 5 day old) | age dependent short term memory deficit [3] | short term memory ([3]; treatment from day 30 to day 39, at 40 days of age) | short-term memory [4] | short-term memory at 60 minutes after training ([2]; 20-day-old, MPEP in development) | short-term memory at 60 minutes after training ([2]; 5 day old, MPEP 200 μg/ml in development) | immediate recall ([5]; 20-day-old, MPEP in development or adulthood or both) | immediate recall ([5]; 5 day old, MPEP 200 μg/ml in development or adulthood or both)
1 | N[C@](CC1c2ccccc2Oc2ccccc21)(C(=O)O)[C@H]1C[C@@H]1C(=O)O [LY341495, (2S)-2-amino-2-[(1S,2S)-2-carboxycycloprop-1-yl]-3-(xanth-9-yl) propionic acid] | demonstrated restoration of short-term memory | demonstrate memory at 60 minutes post training | did not affect short term memory | can rescue the age dependent short term memory deficit | can restore short term memory | restored short-term memory |  |  |  | 
2 | CC(N)(C(=O)O)c1ccc(-c2nnn[nH]2)cc1 (racemic) [MTPG, (RS)-α-methyl-4-tetrazolylphenylglycine] | demonstrated restoration of short-term memory | demonstrate memory at 60 minutes post training |  |  |  |  |  |  |  | 
3 | Cc1cccc(C#Cc2ccccc2)n1 [MPEP, 2-methyl-6-(phenylethynyl)pyridine] | demonstrated restoration of short-term memory | demonstrate memory at 60 minutes post training | did not affect short term memory | can rescue the age dependent short term memory deficit |  |  | does not adversely affect short-term memory | does not adversely affect short-term memory | does not adversely affect immediate recall | does not adversely affect immediate recall
